Test results published in the CheMixHub viscosity set.

Test: xn = mol fraction of the nth substance listed

CCCC(C)=O + CC(=O)O
viscosity [mPa·s], 101 kPa
Settings	x2 = 0.0997	x2 = 0.1996	x2 = 0.2989	x2 = 0.3983	x2 = 0.5013	x2 = 0.6017	x2 = 0.6987	x2 = 0.8081	x2 = 0.8922
298.15 K	0.5074	0.5482	0.5923	0.6401	0.6986	0.7628	0.839	0.9225	1.011
308.15 K	0.4551	0.4882	0.5246	0.5655	0.6134	0.667	0.727	0.8006	0.878
318.15 K	0.4061	0.4339	0.4639	0.4989	0.5394	0.5838	0.635	0.6961	0.7519

ClC(Cl)(Cl)Cl + CC(=O)O
Settings	viscosity [mPa·s]
298.15 K, 101 kPa, x2 = 0.1	0.84
298.15 K, 101 kPa, x2 = 0.22	0.822
298.15 K, 101 kPa, x2 = 0.31	0.811
298.15 K, 101 kPa, x2 = 0.39	0.808
298.15 K, 101 kPa, x2 = 0.63	0.832
298.15 K, 101 kPa, x2 = 0.72	0.863
298.15 K, 101 kPa, x2 = 0.79	0.9
298.15 K, 101 kPa, x2 = 0.91	1.007
298.15 K, 101.33 kPa, x2 = 0.214	0.82
298.15 K, 101.33 kPa, x2 = 0.418	0.804
298.15 K, 101.33 kPa, x2 = 0.608	0.816
298.15 K, 101.33 kPa, x2 = 0.805	0.92
303.15 K, 101 kPa, x1 = 0.0697	1.071
303.15 K, 101 kPa, x1 = 0.2172	0.995
303.15 K, 101 kPa, x1 = 0.7482	0.894
313.15 K, 101 kPa, x1 = 0.0697	0.982
313.15 K, 101 kPa, x1 = 0.2172	0.876
313.15 K, 101 kPa, x1 = 0.7482	0.791
323.15 K, 101 kPa, x1 = 0.0697	0.917
323.15 K, 101 kPa, x1 = 0.2172	0.804
323.15 K, 101 kPa, x1 = 0.7482	0.697

ClC(Cl)(Cl)Cl + CC(C)(C)O
viscosity [mPa·s], 101 kPa
Settings	298.15 K	308.15 K	318.15 K
x2 = 0.0318	0.886	0.768	0.674
x2 = 0.044	0.888	0.77	0.674
x2 = 0.086	0.91	0.78	0.678
x2 = 0.1644	0.958	0.801	0.693
x2 = 0.2487	1.007	0.853	0.712
x2 = 0.3632	1.086	0.897	0.751
x2 = 0.4833	1.221	0.987	0.806
x2 = 0.6052	1.43	1.118	0.892
x2 = 0.7156	1.74	1.303	1.007
x2 = 0.8301	2.392	1.67	1.222
x2 = 0.9132	3.045	1.98	1.381

CCCC(C)=O + CC(C)=O
viscosity [mPa·s], 101 kPa
Settings	x1 = 0.2	x1 = 0.4	x1 = 0.6	x1 = 0.8
293.15 K	0.355	0.391	0.429	0.467
313.15 K	0.294	0.322	0.349	0.377

ClC(Cl)(Cl)Cl + CC(C)=O
viscosity [mPa·s], 101 kPa
Settings	x1 = 0.0993	x1 = 0.2003	x1 = 0.2968	x1 = 0.4207	x1 = 0.5193	x1 = 0.61	x1 = 0.7052	x1 = 0.8049	x1 = 0.9143
293.15 K	0.3621	0.4068	0.4555	0.5227	0.5813	0.6398	0.7073	0.7845	0.8843
298.15 K	0.3447	0.3859	0.4311	0.4933	0.5473	0.6015	0.6632	0.7338	0.8251
303.15 K	0.3284	0.3665	0.409	0.466	0.5196	0.5667	0.6234	0.6889	0.7757
313.15 K	0.3001	0.3321	0.3699	0.4185	0.4649	0.506	0.5538	0.6106	0.6817

ClC(Cl)(Cl)Cl + CC(C)CO
viscosity [mPa·s], 101 kPa
Settings	x2 = 0.0126	x2 = 0.0461	x2 = 0.0853	x2 = 0.2088	x2 = 0.2911	x2 = 0.411	x2 = 0.5341	x2 = 0.7116	x2 = 0.8407
298.15 K	0.888	0.896	0.914	0.995	1.079	1.251	1.521	2.076	2.631
308.15 K	0.774	0.774	0.791	0.845	0.909	1.023	1.206	1.581	1.942
318.15 K	0.679	0.679	0.695	0.726	0.77	0.851	0.978	1.235	1.482

CC(C)[O-].CC(C)[O-].CC(C)[O-].CC(C)[O-].[Ti+4] + CC(C)O
viscosity [mPa·s], 101.3 kPa
Settings	x1 = 0.0502	x1 = 0.1236	x1 = 0.2408	x1 = 0.4582	x1 = 0.6555
293.15 K	2.274	2.136	2.072	2.134	2.287
303.15 K	1.659	1.526	1.458	1.535	1.498
313.15 K	1.274	1.185	1.133	1.167	1.123
323.15 K	0.9981	0.9549	0.9172	0.9361	0.9108
